Laboratory results: US20070021380A1, “Novel drug delivery compositions” (priority 2005, published 2007)
Converted amounts (≈) assume the structure as drawn.

Tested on: HBV
Assay: Anti-viral activity: viral DNA by Q-PCR in tetracycline-responsive HepAD38 cells
Format: cell-based
Conditions: for EC50: HepAD38 cells, viral DNA at day 4 post-induction, Q-PCR; for Improvement Compared to araA: therapeutic effect relative to araA (=1.00)
Protocol: Tetracycline-responsive cell lines HepAD38 were used (Ladner et al., 1997), hepatoma cells that have been stably transfected with a cDNA copy of the pregenomic RNA of wild-type virus. Withdrawal of tetracycline from the culture medium results in the initiation of viral replication. Cells were cultured at 37° C. in a humidified 5% CO2/air atmosphere in seeding medium, DMEM/Ham's F12 (50/50) supplemented with 10% (v/v) heat-inactivated fetal calf serum, 100 IU/ml penicillin/50 μg/ml streptomycin mix, 400 μg/ml G418, and 0.3 μg/ml tetracycline.
Upon assay initiation, the cells were seeded in 48-well plates at a density of 1.5×10^5/well. After 2-3 days the cultures were induced for viral production by washing with prewarmed PBS and were fed with 200 μl assay medium (seeding medium without tetracycline and G418) with or without the antiviral compounds. Medium was changed after 3 days. The antiviral effect was quantified by measuring levels of viral DNA [isolated (Qiagen) from the cell cultures] at day 4 post-induction, by a real time quantitative PCR (Q-PCR) and analyzed using a SDS 7000 (Applied Biosystems, Foster City, Calif.).
A plasmid containing the full length insert of the HBV genome was used to prepare the standard curve. The amount of viral DNA produced in treated cultures was expressed as a percentage of the mock treated samples. The cytostatic effect of the various compounds was assessed employing the parent hepatoma cell line HepG2. The effect of the compounds on exponentially growing HepG2 cells was evaluated by means of the MTS method (Promega). Briefly, cells were seeded at a density of 3000/well (96 well plate) and were allowed to proliferate for 3 days in the absence or presence of compounds after which time cell density was determined.

Compound | EC50 | Improvement Compared to araA
Nc1ncnc2c1ncn2[C@@H]1O[C@H](CO)[C@@H](O)[C@@H]1O [araA] | 35 mg/L (≈ 131 µM) | 1.00
Nc1ncnc2c1ncn2[C@@H]1O[C@H](COP(=O)(O)O)[C@@H](O)[C@@H]1O [araAMP, araA-monophosphate] | 33 mg/L (≈ 95 µM) | 1.35
